Earlier results as cited in US20180242917A1, “SYSTEMS AND METHODS FOR DETERMINING IMAGE QUALITY AND MODELS BASED ON CONTRAST INJECTION PROTOCOLS” (Duke University, priority 2015, published 2018).

Parameters: unit not given here
Conditions: used to calculate total EC fluid volume (18.9 L incl. 3 L plasma) for a 70-kg adult patient

apparent volume value of distribution: 0.27
Structure (SMILES): CC(=O)N(CC(O)CO)c1c(I)c(C(=O)NCC(O)CO)c(I)c(C(=O)NCC(O)CO)c1I (stereo not shown) [iohexol]
